# Laboratory results: PubChem BioAssay (NCI)
#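 In this assay, cells in 96-well plates receive the compound at five concentrations for 48 hours. Endpoints are linearly interpolated between the surrounding concentrations. Abbreviation: GI50, concentration required for 50% inhibition of growth. At the TGI there is no net growth.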
# Tested on: SF-268 CNS
# Experiment: NCI anticancer screen, dose series, 48 h
SMILES,TGI,GI50
O=C1/C(=C/c2ccc(O)cc2)CC/C1=C\c1ccc(O)cc1,> 100 µM,
CC(C)C1/C(=N/O)CC(c2ccccc2)N(N=O)C1c1ccccc1 (stereo unspecified),> 100 µM,
CC1(C)N=C(/C(Cl)=[N+](/[O-])C(=O)c2ccc(F)cc2)C(C)(C)N1O,33.6 µM,
COC(=O)[C@H](Cc1c[nH]c2ccccc12)NP(=O)(O)OCC1C=CC(n2cc(C)c(=O)[nH]c2=O)O1 (stereo partly specified),> 100 µM,
COc1cc(/C=C2\S/C(=N/Nc3nc(-c4ccc(Br)cc4)cs3)NC2=O)cc(OC)c1OC,> 100 µM,
COC(=O)[C@H]1CO[C@@H](C(C)(C)C)N1C(=O)N1C=CC(=O)C[C@@H]1C,> 100 µM,
CCCNC1=C2CC(C)CC(OC)[C@@H](O)[C@H](C)/C=C(\C)C(OC(N)=O)C(OC)/C=C\C=C(/C)C(=O)NC(=CC1=O)C2=O (stereo partly specified),27.1 µM,0.134 µM
C[n+]1c2ccccc2c(/C=N\NS(=O)(=O)c2ccc(O)c(C(=O)O)c2)c2ccccc21,> 100 µM,
O=C(Nc1ccc(C2=NCCN2)cc1)c1cncc(C(=O)Nc2ccc(C3=NCCN3)cc2)c1,> 31.6 µM,
Clc1ccc(/C=C/c2nc3ccccc3s2)cc1Cl,> 100 µM,
CCC1(O)CC2CC(=O)OC2C1O (stereo unspecified),> 100 µM,
Cc1ccc(SCC(CSCCO)OCn2cnc3c2NC(N)=NC32OCCO2)cc1 (stereo unspecified),> 100 µM,
C(/c1ccco1)=c1/nc(-c2ccccc2)n2c1nc1ccccc12,> 100 µM,
NC(=O)C(c1ccccc1)N1OC2C(=O)N(c3ccccc3)C(=O)C2C1c1c2ccccc2c(Cl)c2ccccc12 (stereo unspecified),> 100 µM,
CC[C@@]1(C[C@H]2C[C@@]3(C(=O)OC)c4[nH]c5ccccc5c4CCN3C2=O)COC2(CCCCC2)O1,> 100 µM,
O=S1(=O)NC(=NCc2c[nH]c3ccccc23)N(c2ccccc2)c2ccncc21,75.6 µM,
CC(C)CCCCCCCCCCCCC(=O)NCC(=O)NC1C(C)OC(Nc2ncnc3c2ncn3C)C(O)C1O (stereo unspecified),> 100 µM,
C[C@@]12C[C@@H](c3ccccc3O1)N1CCCCSC1=N2,> 100 µM,
CCOC(=O)Nn1c(C)nnc1-c1ccccc1,> 100 µM,
Cc1cn(C2CC(n3cc(Cn4cc(I)c(=O)[nH]c4=O)nn3)C(CO)O2)c(=O)[nH]c1=O (stereo unspecified),> 100 µM,
O=C1CCC(=O)N1n1c(Cc2ccccc2)n[nH]c1=O,> 100 µM,
Oc1cc2c3c(c1)c1cc4c(cc1c[n+]3CC2)OCO4,8.9 µM,
Cc1cn(C2CC(N(O)C(N)=O)C(CO)O2)c(=O)[nH]c1=O (stereo unspecified),> 100 µM,
O=C1CCC23CC(C=CC=C12)n1c(=O)n(-c2ccccc2)c(=O)n13 (stereo unspecified),> 100 µM,
CC(=O)NC1=C(NCCC(C)C)C(=O)c2ccccc2C1=O,> 50 µM,
O=C(O)c1cccc2c1/C(=N/Nc1ccccc1)CC2,> 100 µM,
CC1=C(C)[C@@]2(C)O[C@@]2(C)O[C@@]2(C)O[C@@]12C,> 100 µM,

# Tested on: SK-MEL-5 melanoma
# Experiment: NCI anticancer screen, dose series, 48 h
SMILES,TGI,GI50
O=c1[nH][nH]c(=O)n1Cc1ccccc1Cn1c(=O)[nH][nH]c1=O,> 100 µM,
CC1C=C(CCCCCCCCCCCC[C@@H](O)[C@@H]2CC[C@@H]([C@@H]3CC[C@@H](C(O)CCCCCCCCCCCCC4=C[C@H](C)OC4=O)O3)O2)C(=O)O1 (stereo partly specified),27.4 µM,
CCNC(=S)N/N=C/c1cc([N+](=O)[O-])ccc1O,> 100 µM,
CCOC(=O)c1c2ccccc2n2c(N)c(C(N)=O)nnc12,> 100 µM,
Cc1cc(N(CCC#N)CCC#N)ccc1/C(N=Nc1ccc(Cl)cc1)=N\NC(=O)c1ccccc1,> 100 µM,
CC[C@@]1(O)C(=O)OCc2c1cc1n(c2=O)Cc2c-1nc1ccccc1c2/C=N\NC(=O)CN,1.88 µM,
CCc1ccc(CCN2CCCCC2)nc1,> 100 µM,
CNC(=O)C(C)C1CCC2(C)C=CC(=O)C(C)=C2C1O (stereo unspecified),> 60.1 µM,
O=C(NNC(=O)c1ccccc1SSc1ccccc1C(=O)NNC(=O)c1ccccc1S)c1ccccc1S,> 100 µM,
CCOC(=O)C(NC(C)=O)(Nc1ccc(F)cc1)C(F)(F)F (stereo unspecified),> 100 µM,
CCOc1cc2c(cc1O)/C(=N\OC)C[C@@H]1[C@@H]2CC[C@]2(C)[C@@H](O)CC[C@@H]12,12.6 µM,
O=C1/C(=C/c2ccc(O)cc2)CC/C1=C\c1ccc(O)cc1,> 100 µM,
CC(C)C1/C(=N/O)CC(c2ccccc2)N(N=O)C1c1ccccc1 (stereo unspecified),95.9 µM,
CC1(C)N=C(/C(Cl)=[N+](/[O-])C(=O)c2ccc(F)cc2)C(C)(C)N1O,30.4 µM,
COC(=O)[C@H](Cc1c[nH]c2ccccc12)NP(=O)(O)OCC1C=CC(n2cc(C)c(=O)[nH]c2=O)O1 (stereo partly specified),> 100 µM,
COc1cc(/C=C2\S/C(=N/Nc3nc(-c4ccc(Br)cc4)cs3)NC2=O)cc(OC)c1OC,20.2 µM,
COC(=O)[C@H]1CO[C@@H](C(C)(C)C)N1C(=O)N1C=CC(=O)C[C@@H]1C,> 100 µM,
CCCNC1=C2CC(C)CC(OC)[C@@H](O)[C@H](C)/C=C(\C)C(OC(N)=O)C(OC)/C=C\C=C(/C)C(=O)NC(=CC1=O)C2=O (stereo partly specified),18.3 µM,0.0343 µM
C[n+]1c2ccccc2c(/C=N\NS(=O)(=O)c2ccc(O)c(C(=O)O)c2)c2ccccc21,> 100 µM,
O=C(Nc1ccc(C2=NCCN2)cc1)c1cncc(C(=O)Nc2ccc(C3=NCCN3)cc2)c1,> 100 µM,
Clc1ccc(/C=C/c2nc3ccccc3s2)cc1Cl,> 100 µM,
CCC1(O)CC2CC(=O)OC2C1O (stereo unspecified),> 100 µM,
